PubChem BioAssay (NCI)
“And” between values parts separate entries of the source, which are not always exact repeats. Equal entries are not always repeated.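 Exposure lasted 48 hours, with cells grown in 96-well plates and compounds tested at five concentrations. Abbreviation: GI50, concentration required for 50% inhibition of growth. Definition used: TGI = concentration required for complete inhibition of growth.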

Tests used:
Assay in all cases: NCI tumour cell line growth inhibition, 48 h
UACC-62 melanoma = test system: UACC-62 melanoma
IGROV1 ovarian = test system: IGROV1 ovarian
PC-3 prostate = test system: PC-3 prostate
A549 NSCLC = test system: A549 NSCLC
OVCAR-8 ovarian = test system: OVCAR-8 ovarian
NCI-H226 lung = test system: NCI-H226 lung
DU-145 prostate = test system: DU-145 prostate
NCI-H460 lung = test system: NCI-H460 lung
SK-OV-3 ovarian = test system: SK-OV-3 ovarian
SW-620 colon = test system: SW-620 colon
SR leukemia = test system: SR leukemia
CCRF-CEM leukemia = test system: CCRF-CEM leukemia
ACHN renal = test system: ACHN renal
NCI-H23 lung = test system: NCI-H23 lung
SF-295 CNS = test system: SF-295 CNS
HOP-92 NSCLC = test system: HOP-92 NSCLC
T-47D breast = test system: T-47D breast
KM12 colon = test system: KM12 colon
HCT-15 colon = test system: HCT-15 colon
U251 CNS = test system: U251 CNS
HCT-116 colon = test system: HCT-116 colon
OVCAR-5 ovarian = test system: OVCAR-5 ovarian
EKVX NSCLC = test system: EKVX NSCLC
SNB-19 CNS = test system: SNB-19 CNS
HCC-2998 colon = test system: HCC-2998 colon
SF-268 CNS = test system: SF-268 CNS
SK-MEL-28 melanoma = test system: SK-MEL-28 melanoma
786-0 renal = test system: 786-0 renal
SNB-75 CNS = test system: SNB-75 CNS
COLO 205 colon = test system: COLO 205 colon
K-562 leukemia = test system: K-562 leukemia
MALME-3M melanoma = test system: MALME-3M melanoma
HOP-62 NSCLC = test system: HOP-62 NSCLC
NCI-H522 lung = test system: NCI-H522 lung
NCI/ADR-RES ovarian = test system: NCI/ADR-RES ovarian
MCF7 breast = test system: MCF7 breast
UO-31 renal = test system: UO-31 renal
HL-60(TB) leukemia = test system: HL-60(TB) leukemia
CAKI-1 renal = test system: CAKI-1 renal
M14 melanoma = test system: M14 melanoma
RXF 393 renal = test system: RXF 393 renal
SK-MEL-5 melanoma = test system: SK-MEL-5 melanoma
OVCAR-3 ovarian = test system: OVCAR-3 ovarian
UACC-257 melanoma = test system: UACC-257 melanoma
HS 578T breast = test system: HS 578T breast
SF-539 CNS = test system: SF-539 CNS
A498 renal = test system: A498 renal
LOX IMVI melanoma = test system: LOX IMVI melanoma
MOLT-4 leukemia = test system: MOLT-4 leukemia
SK-MEL-2 melanoma = test system: SK-MEL-2 melanoma
OVCAR-4 ovarian = test system: OVCAR-4 ovarian
MDA-MB-435 = test system: MDA-MB-435
TK-10 renal = test system: TK-10 renal
RPMI-8226 leukemia = test system: RPMI-8226 leukemia
MDA-MB-231 breast = test system: MDA-MB-231 breast
HT29 colon = test system: HT29 colon
SN12C renal = test system: SN12C renal
BT-549 breast = test system: BT-549 breast

Q: Which results are given for `COc1cc2nccc(Oc3ccc(NC(=O)Nc4cc(C)on4)c(Cl)c3)c2cc1OC`?
A: GI50 (UACC-62 melanoma): 2.12 µM and 1.82 µM; TGI (UACC-62 melanoma): 16.4 µM and > 10 µM; GI50 (IGROV1 ovarian): 2.51 µM and 2.85 µM; TGI (IGROV1 ovarian): 8.36 µM and > 10 µM; GI50 (PC-3 prostate): 4.74 µM and 5.91 µM; TGI (PC-3 prostate): > 100 µM; GI50 (A549 NSCLC): 3.15 µM and 4.31 µM; TGI (A549 NSCLC): 19.1 µM and > 10 µM; GI50 (OVCAR-8 ovarian): 3.6 µM and 4.67 µM; TGI (OVCAR-8 ovarian): > 100 µM; GI50 (NCI-H226 lung): 0.795 µM and 0.438 µM; TGI (NCI-H226 lung): 35.2 µM and > 10 µM; GI50 (DU-145 prostate): 4.31 µM and 6.6 µM; TGI (DU-145 prostate): > 77.8 µM; GI50 (NCI-H460 lung): 3.41 µM and 4.31 µM; TGI (NCI-H460 lung): > 70.4 µM; GI50 (SK-OV-3 ovarian): 4.16 µM and 3.57 µM; TGI (SK-OV-3 ovarian): 26.5 µM and > 10 µM; GI50 (SW-620 colon): 3.11 µM and 4.09 µM; TGI (SW-620 colon): 18.4 µM and > 10 µM; GI50 (SR leukemia): 2.62 µM and 3.86 µM; TGI (SR leukemia): 34.4 µM and > 10 µM; GI50 (CCRF-CEM leukemia): 3.1 µM; TGI (CCRF-CEM leukemia): > 100 µM; GI50 (ACHN renal): 3.28 µM and 3.72 µM; TGI (ACHN renal): 22.3 µM and > 10 µM; GI50 (NCI-H23 lung): 2.97 µM and 3.07 µM; TGI (NCI-H23 lung): > 100 µM; GI50 (SF-295 CNS): 2.08 µM and 3.08 µM; TGI (SF-295 CNS): 14 µM and > 10 µM; GI50 (HOP-92 NSCLC): 2.58 µM and 0.911 µM; TGI (HOP-92 NSCLC): 6.27 µM and 3.44 µM; GI50 (T-47D breast): 2.98 µM and 3.35 µM; TGI (T-47D breast): 23.2 µM and > 10 µM; GI50 (KM12 colon): 0.178 µM and 0.25 µM; TGI (KM12 colon): > 66.6 µM; GI50 (HCT-15 colon): 4.36 µM and 4.2 µM; TGI (HCT-15 colon): > 100 µM; GI50 (U251 CNS): 4.68 µM and 8.17 µM; TGI (U251 CNS): > 100 µM; GI50 (HCT-116 colon): 2.29 µM and 2.91 µM; TGI (HCT-116 colon): 5.48 µM and > 10 µM; GI50 (OVCAR-5 ovarian): 4.15 µM and 4.08 µM; TGI (OVCAR-5 ovarian): 42.9 µM and > 10 µM; GI50 (EKVX NSCLC): 3.02 µM and 4.69 µM; TGI (EKVX NSCLC): 49.6 µM and > 10 µM; GI50 (SNB-19 CNS): 5.12 µM and > 10 µM; TGI (SNB-19 CNS): > 100 µM; GI50 (HCC-2998 colon): 9 µM and > 10 µM; TGI (HCC-2998 colon): > 100 µM; GI50 (SF-268 CNS): 2.58 µM and 3.09 µM; TGI (SF-268 CNS): > 55.3 µM; GI50 (SK-MEL-28 melanoma): 3.76 µM and 4.31 µM; TGI (SK-MEL-28 melanoma): 19.3 µM and > 10 µM; GI50 (786-0 renal): 3.43 µM and 4.11 µM; TGI (786-0 renal): 23.3 µM and > 10 µM; GI50 (SNB-75 CNS): 1.99 µM and 2.06 µM; TGI (SNB-75 CNS): 6.24 µM and > 10 µM; GI50 (COLO 205 colon): 3.22 µM and 3.04 µM; TGI (COLO 205 colon): 32.7 µM and > 10 µM; GI50 (K-562 leukemia): 0.0349 µM and 0.0609 µM; TGI (K-562 leukemia): > 100 µM; GI50 (MALME-3M melanoma): 1.92 µM and 6.17 µM; TGI (MALME-3M melanoma): 8.17 µM and > 10 µM; GI50 (HOP-62 NSCLC): 5.58 µM and > 10 µM; TGI (HOP-62 NSCLC): > 100 µM; GI50 (NCI-H522 lung): 3.47 µM and 3.14 µM; TGI (NCI-H522 lung): 32.9 µM and > 10 µM; GI50 (NCI/ADR-RES ovarian): 3.08 µM and 3.53 µM; TGI (NCI/ADR-RES ovarian): > 100 µM; GI50 (MCF7 breast): 3.35 µM; TGI (MCF7 breast): 56.2 µM and > 10 µM; GI50 (UO-31 renal): 1.88 µM and 2.5 µM; TGI (UO-31 renal): 5.76 µM and > 10 µM; GI50 (HL-60(TB) leukemia): 3.35 µM and 3.2 µM; TGI (HL-60(TB) leukemia): 11.8 µM and > 10 µM; GI50 (CAKI-1 renal): 2.58 µM and 2.25 µM; TGI (CAKI-1 renal): 7.67 µM and > 10 µM; GI50 (M14 melanoma): 2.55 µM and 3.05 µM; TGI (M14 melanoma): 7.83 µM and > 10 µM; GI50 (RXF 393 renal): 1.96 µM and 1.79 µM; TGI (RXF 393 renal): 6.2 µM and 8.18 µM; GI50 (SK-MEL-5 melanoma): 2.04 µM and 2.81 µM; TGI (SK-MEL-5 melanoma): 5.69 µM and > 10 µM; GI50 (OVCAR-3 ovarian): 4 µM and 7.96 µM; TGI (OVCAR-3 ovarian): 14.4 µM and > 10 µM; GI50 (UACC-257 melanoma): 3.73 µM and 5.54 µM; TGI (UACC-257 melanoma): 33.9 µM and > 10 µM; GI50 (HS 578T breast): 1.48 µM and 1.54 µM; TGI (HS 578T breast): 5.78 µM and > 10 µM; GI50 (SF-539 CNS): 1.49 µM and 1.41 µM; TGI (SF-539 CNS): 4.05 µM and 4.74 µM; GI50 (A498 renal): 0.532 µM and 1.46 µM; TGI (A498 renal): 2.67 µM and 4.6 µM; GI50 (LOX IMVI melanoma): 2.21 µM and 2.19 µM; TGI (LOX IMVI melanoma): 8.14 µM and > 10 µM; GI50 (MOLT-4 leukemia): 2.12 µM and 1.86 µM; TGI (MOLT-4 leukemia): 44.1 µM and > 10 µM; GI50 (SK-MEL-2 melanoma): 3.56 µM and 3.33 µM; TGI (SK-MEL-2 melanoma): 10.4 µM and > 10 µM; GI50 (OVCAR-4 ovarian): 2.34 µM and 4.13 µM; TGI (OVCAR-4 ovarian): > 65.2 µM; GI50 (MDA-MB-435): 2.74 µM and 2.98 µM; TGI (MDA-MB-435): > 59.6 µM; GI50 (TK-10 renal): 3.42 µM and 3.9 µM; TGI (TK-10 renal): 13.2 µM and > 10 µM; GI50 (RPMI-8226 leukemia): 9.83 µM and 4.33 µM; TGI (RPMI-8226 leukemia): > 55.7 µM; GI50 (MDA-MB-231 breast): 2.18 µM and 2.42 µM; TGI (MDA-MB-231 breast): 8.73 µM and > 10 µM; GI50 (HT29 colon): 3.01 µM and 2.78 µM; TGI (HT29 colon): 15.5 µM and > 10 µM; GI50 (SN12C renal): 2.13 µM and 2.56 µM; TGI (SN12C renal): > 100 µM; GI50 (BT-549 breast): 4.16 µM and 4.99 µM; TGI (BT-549 breast): 13.4 µM and > 10 µM
